Key:
[1] = test system: BU3 NGPT iBC-derived ALI cultures; assay: Mucus cell metaplasia model: IL-13 treatment of iBC-derived ALI cultures; assay type: cell-based, human
Protocol: Human airway epithelium has diverse biologic and physiologic roles, some of which are uniquely affected by disease. it was tested whether iBC-derived ALI cultures could recapitulate features of the three airway disorders with distinct epithelial characteristics: (1) mucus cell metaplasia in asthma; (2) abnormal ion-flux seen in CF; and (3) defective ciliary beating seen in PCD. First, it was tested whether iBC-derived ALI cultures could recapitulate the mucus cell metaplasia seen in asthma. Interleukin-13 (IL-13) is an inflammatory cytokine in asthma and can induce mucus metaplasia. A number of studies, in mice and primary human airway epithelial cell cultures, have found IL-13 leads to increased MUC5AC+ cell numbers via the activation of STAT6 and SPDEF, at the expense of MCCs and MUC5B+ cell frequencies (Kondo et al., 2002; Seibold, 2018; Woodruff et al., 2009).
BU3 NGPT iBSC-derived ALI culture was prepared as described above. Ten days after air-lifted, cells were treated with 10 ng/ml IL-13 and cultured for 10 days prior to the assessments. Mucus cell metaplasia was assessed by immunofluorescence staining for the increment of MUC5AC expressing cells or gene expression changes via qRT-PCR. Quantification of MUC5AC+ cells was performed using ImageJ™ software by manually counting MUC5AC+ cells in 3 randomly selected fields per well (n=3 wells per condition).
RNA was extracted by first lysing cells in QIAzol (QIAGEN) and subsequently using the RNeasy Mini kit (QIAGEN). Taqman Fast Universal PCR mastermix (Applied Biosystems) were used to reverse transcribe RNA into cDNA and analyzed during 40 cycles of real time PCR using Taqman probes (Applied Biosystems). Relative gene expression, normalized to 18S control, was calculated as fold change in 18S-normalized gene expression, over baseline, using the 2(-DDCT) method. Baseline, defined as fold change=1, was set to undifferentiated iPSCs. If undetected, a cycle number of 40 was assigned to allow fold change calculations.

[2] = molecular target: CFTR (F508del) in ALI cultures generated from CF iPSCs (Homo sapiens, UniProt P13569, DEL508-508); assay: Ussing chamber analysis of CFTR-dependent current, CF ALI cultures; assay type: cell-based; details: CF (F508del homozygous) iPSC-derived ALI cultures, after amiloride
[3] = molecular target: CFTR in ALI cultures generated from corrected CF iPSCs (Corr CF) (Homo sapiens, UniProt P13569); assay: Ussing chamber analysis of CFTR-dependent current, corrected CF ALI cultures; details: Corr CF (gene-corrected) iPSC-derived ALI cultures, after amiloride; mean±SD, n=3
[4] = IL-13 treated vs untreated, qRT-PCR

Chain of CFTR (F508del) in ALI cultures generated from CF iPSCs (P13569 with tags, fused parts or gaps DEL508-508): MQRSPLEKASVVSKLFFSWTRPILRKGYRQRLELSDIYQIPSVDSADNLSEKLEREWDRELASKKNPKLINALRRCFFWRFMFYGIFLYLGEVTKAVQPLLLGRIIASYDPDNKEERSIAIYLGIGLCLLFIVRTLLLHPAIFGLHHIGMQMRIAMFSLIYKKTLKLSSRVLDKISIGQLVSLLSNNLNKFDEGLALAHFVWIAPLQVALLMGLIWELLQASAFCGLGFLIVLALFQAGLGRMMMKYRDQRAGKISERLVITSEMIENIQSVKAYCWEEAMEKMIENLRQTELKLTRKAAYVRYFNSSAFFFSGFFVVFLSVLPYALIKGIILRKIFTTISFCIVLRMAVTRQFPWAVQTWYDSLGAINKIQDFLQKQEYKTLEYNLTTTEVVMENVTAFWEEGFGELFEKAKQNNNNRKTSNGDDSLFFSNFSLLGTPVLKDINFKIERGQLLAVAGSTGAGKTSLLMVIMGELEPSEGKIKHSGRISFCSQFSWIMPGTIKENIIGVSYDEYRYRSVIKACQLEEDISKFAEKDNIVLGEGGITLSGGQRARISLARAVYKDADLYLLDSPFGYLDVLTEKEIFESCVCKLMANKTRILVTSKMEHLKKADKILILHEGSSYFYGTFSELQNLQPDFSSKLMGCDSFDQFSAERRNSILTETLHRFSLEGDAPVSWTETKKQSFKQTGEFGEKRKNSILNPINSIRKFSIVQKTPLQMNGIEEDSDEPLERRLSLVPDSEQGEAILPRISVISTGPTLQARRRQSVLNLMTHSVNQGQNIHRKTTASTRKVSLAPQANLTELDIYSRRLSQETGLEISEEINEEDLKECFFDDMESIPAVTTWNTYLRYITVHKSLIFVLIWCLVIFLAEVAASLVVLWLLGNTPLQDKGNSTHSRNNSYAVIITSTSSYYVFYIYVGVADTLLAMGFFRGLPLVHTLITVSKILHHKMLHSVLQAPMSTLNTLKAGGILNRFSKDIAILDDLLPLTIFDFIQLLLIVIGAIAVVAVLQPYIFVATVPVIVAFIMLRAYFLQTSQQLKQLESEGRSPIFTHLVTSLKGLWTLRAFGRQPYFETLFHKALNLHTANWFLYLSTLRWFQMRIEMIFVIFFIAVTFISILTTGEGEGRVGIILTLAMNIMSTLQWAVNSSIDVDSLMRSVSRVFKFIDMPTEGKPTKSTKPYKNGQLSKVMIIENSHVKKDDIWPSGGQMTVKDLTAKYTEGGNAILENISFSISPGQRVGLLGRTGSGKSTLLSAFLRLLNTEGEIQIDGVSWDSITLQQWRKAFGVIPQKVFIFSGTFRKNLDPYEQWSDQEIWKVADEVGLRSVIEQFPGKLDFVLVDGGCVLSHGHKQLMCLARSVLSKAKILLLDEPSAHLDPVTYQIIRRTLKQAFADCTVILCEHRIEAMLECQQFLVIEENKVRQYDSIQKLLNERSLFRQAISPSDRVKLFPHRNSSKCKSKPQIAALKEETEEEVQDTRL
Chain of CFTR in ALI cultures generated from corrected CF iPSCs (Corr CF) (P13569 whole entry): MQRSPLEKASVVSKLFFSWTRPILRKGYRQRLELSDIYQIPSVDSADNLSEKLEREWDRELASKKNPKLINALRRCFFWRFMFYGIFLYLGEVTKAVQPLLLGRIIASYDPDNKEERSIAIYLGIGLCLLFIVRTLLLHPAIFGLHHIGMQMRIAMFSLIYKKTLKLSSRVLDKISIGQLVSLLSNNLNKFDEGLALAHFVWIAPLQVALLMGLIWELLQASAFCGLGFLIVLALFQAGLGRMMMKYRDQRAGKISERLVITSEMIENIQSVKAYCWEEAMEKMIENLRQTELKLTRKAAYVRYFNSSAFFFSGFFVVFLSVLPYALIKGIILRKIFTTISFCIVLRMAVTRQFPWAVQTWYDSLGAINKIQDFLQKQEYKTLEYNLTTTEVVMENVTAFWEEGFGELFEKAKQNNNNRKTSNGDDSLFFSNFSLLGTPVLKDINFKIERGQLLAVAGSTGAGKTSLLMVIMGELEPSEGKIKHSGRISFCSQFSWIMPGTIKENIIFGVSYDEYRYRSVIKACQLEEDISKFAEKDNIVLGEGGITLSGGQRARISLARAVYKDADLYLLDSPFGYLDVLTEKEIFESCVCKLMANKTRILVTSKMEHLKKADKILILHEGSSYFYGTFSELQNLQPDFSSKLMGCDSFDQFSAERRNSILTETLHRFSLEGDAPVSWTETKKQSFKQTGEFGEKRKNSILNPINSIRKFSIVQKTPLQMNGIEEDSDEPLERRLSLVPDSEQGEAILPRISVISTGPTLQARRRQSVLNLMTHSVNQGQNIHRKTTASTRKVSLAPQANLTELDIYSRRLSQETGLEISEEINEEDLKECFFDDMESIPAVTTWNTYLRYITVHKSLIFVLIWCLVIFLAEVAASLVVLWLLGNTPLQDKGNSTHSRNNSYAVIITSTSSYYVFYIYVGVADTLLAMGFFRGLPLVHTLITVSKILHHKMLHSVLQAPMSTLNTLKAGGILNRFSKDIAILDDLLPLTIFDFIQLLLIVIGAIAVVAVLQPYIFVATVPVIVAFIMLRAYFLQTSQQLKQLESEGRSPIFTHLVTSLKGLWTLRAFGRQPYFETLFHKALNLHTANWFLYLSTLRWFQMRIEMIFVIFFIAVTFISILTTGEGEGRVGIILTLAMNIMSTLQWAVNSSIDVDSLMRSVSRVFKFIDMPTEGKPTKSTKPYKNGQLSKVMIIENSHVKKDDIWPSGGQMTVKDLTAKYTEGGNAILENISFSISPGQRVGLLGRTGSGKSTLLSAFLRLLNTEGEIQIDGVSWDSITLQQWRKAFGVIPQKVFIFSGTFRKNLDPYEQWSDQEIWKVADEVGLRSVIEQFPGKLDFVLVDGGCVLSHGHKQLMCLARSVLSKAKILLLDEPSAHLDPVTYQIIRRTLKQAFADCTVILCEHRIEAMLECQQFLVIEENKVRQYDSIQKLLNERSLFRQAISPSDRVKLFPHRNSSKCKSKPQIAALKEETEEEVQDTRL

Row | AIsc (change in short circuit current) [2] [pA/cm2] | AIsc (change in short circuit current) [3] [pA/cm2] | Substance | fold increase in numbers of MUC5AC+ cells ([1]; 10 ng/ml IL-13 added on day 10 of ALI differentiation, 10 days, vs untreated, p=0.002) [fold] | MUC5B expression [1, 4] | expression of goblet cell transcriptional regulator SPDEF [1, 4]
1 | – | – | IL-13: inflammatory Th-2 cytokine in asthma that can induce mucus metaplasia | 1.75 | decrease | increased expression
2 | −0.8 | −43.2±2.5 | CFTRInh-172 | – | – | –

— patent US11401510B2, “Generation of airway basal stem cells from human pluripotent stem cells” (TRUSTEES OF BOSTON UNIVERSITY, priority 2020, dated 2022)
